Experiment: Oral bioavailability in Sprague-Dawley rat at 30 mg/kg
Assay type: ADME, organism-based
Details: in vivo

## Cc1cn2cc(CC(=O)N3CCC4(CC3)CN(Cc3ccc(-n5nccn5)cc3Cl)C4)nc2s1
  bioavailability: 43%

From ChEMBL document CHEMBL2046354, “Identification of spirocyclic piperidine-azetidine inverse agonists of the ghrelin receptor” (Bioorg Med Chem Lett, 2012)
